# Literature values, collected in patent US5681738A, “Use of 10-oxo-trans-8-decenoic acid in mushroom cultivation” (The Penn State Research Foundation, priority 1992, dated 1997).
# System: seed chamber of runner bean
# Conditions: Zimmerman et al., (1979); cited from earlier work
smiles,measurement,value
O=C/C=C/CCCCCCCCC(=O)O [12-Oxo-trans-10-dodecenoic acid],formation of an intumescence on seed chamber (in words),found to induce the formation of an intumescence
